Key:
mTORC1 [1] = test: Amino acid starvation and re-stimulation of HEK-293T cells, phospho-S6K western blot; format: cell-based, human; settings: whole-cell assays of mTORC1 activity; partly called preliminary evidence
From the text: The work described herein determined which amino acids are most critical for signaling to the mTORC1 pathway in HEK-293T cells, the workhorse cell culture system to which we owe much of our understanding about amino acid sensing. The basic experimental paradigm consists of a 50-minute total amino acid starvation followed by a 10-minute stimulation with a customizable set of amino acids. […] The work described herein determined that that there may be one or more missing amino acids that, when added alongside Leu and Arg, could fully activate mTORC1.
To determine the identities of these missing amino acids, the inventors first stimulated cells with the set of essential or the set of nonessential amino acids. […] The inventors then tested triplet amino acid combinations comprised of Leu, Arg, and one additional essential amino acid. […] Cocktails of EAAs that omitted one amino acid at a time were prepared. […] Thus the necessity and sufficiency experiments yielded complementary results, converging on Leu, Arg, and Lys as key signals for mTORC1 activation in 293T cells.
The inventors have explored why this particular combination of amino acids has such synergistic effects on the mTORC1 pathway in 293T cells. Given that both Arg and Lys contain basic side chains, the inventors first wondered if this shared chemical property underlay their abilities to activate mTORC1.
Furthermore, the inventors continue to characterize structure-activity relationships using LRK derivatives with modifications on the carboxy terminus, the amino terminus, and/or the side chain in whole-cell and in vitro lysosomal assays of mTORC1 activity. The inventors first tested amino acid carboxyesters, whose enhanced ability to permeate membranes render them good candidates for lysosomal loading. Once inside the lysosome, amino acid esters are thought to undergo hydrolysis to yield their native counterparts. […] Knowledge of the chemical space around LRK can be used to develop probes for interrogating the LRK/protein(s) interaction interface for isolating and/or enriching the amino acid sensor(s) feeding into mTORC1.

mTORC1 [2] = test: mTORC1 activity in MEFs (immunoblotting); format: cell-based, mouse; settings: AMPK activator treatment
Experimental: FIG. 16A is a bar graph illustrating the decrease in plasma amino acids in all 1 h fasted neonates. […] FIG. 16C is a western blot depicting the time course of mTORC1 and AMPK activity in AMPK-wt, AMPK-DKO, RagA^+/+ and RagA^GTP/GTP MEFs deprived of glucose for 0.5, 2 and 4 h. FIG. 16D is a western blot of whole cell lysates immunoblotted for the indicated proteins, showing control HEK-293T cells or those expressing RagB^GTP were deprived of growth factors, glucose, amino acids, or glucose and amino acids for 1 h and re-stimulated with glucose and/or amino acids for 10 min. FIG. 16E is a graph illustrating the quantification of the western blots on FIG. 12B and FIG. 16D. FIG. 16F is a western blot showing the effect of amino acid esters on mTORC1 activity in wt MEFs. FIG. 16G is a bar graph showing the quantification of amino acids in RagA^+/+ and RagA^GTP/GTP MEFs deprived of glucose (relative to un-starved controls). […]
Maintenance of mTORC1 activity requires the simultaneous presence of growth factors, amino acids, and glucose^1. […] In addition, AMPK activity, as monitored by acetyl-CoA carboxylase (ACC) phosphorylation, was induced to similar levels in glucose-deprived RagA^+/+ and RagA^GTP/GTP cells (FIG. 12B and FIG. 16C), but absent in AMPK-null cells (FIG. 12A).

RagA^GTP/GTP neonates = test: Survival, glucose homeostasis and autophagy of fasted RagA^GTP/GTP neonates; format: in vivo, mouse
Experimental: NS, not significant. […] FIG. 10G is a series of bar graphs illustrating the quantification of neonatal plasma amounts of branched-chain (BCAA) and essential amino acids at birth (left), after 10 h fasting (middle) and after 10 h fasting with rapamycin treatment (right) (n for +/+, G/+ and G/G, respectively: n=4, 5 and 4 for 0 h; n=4, 4 and 3 for 10 h; n=2, 5 and 3 for rapamycin; mean±s.d.). Values are expressed relative to RagA^+/+ amounts at each time point.

[3] = Free amino acid levels in gastrocnemius muscle by LC-MS in fasted mice; format: in vivo, mouse; settings: upon IP injection of citrulline containing formulations
[4] = cited from earlier work
mTORC1 [5] = test: Phosphorylated S6 in gastrocnemius muscle and liver of fasted rats after oral gavage or bolus IV injection; format: in vivo; settings: summary of the rat studies
Experimental: FIGS. 23A, 23B, 23C and 23D depict the effect of administering various combinations of amino acids on levels of phosphorylated ribosomal protein S6 (pS6) in gastrocnemius muscle and liver. FIGS. 23A and 23B are bar graphs showing the fold increase in pS6/actin protein ratios in fasted rat gastrocnemius muscle (FIG. 23A) or liver (FIG. 23B) 30 and 60 minutes after administering amino acids via oral gavage. FIGS. 23C and 23D are bar graphs showing the fold increase in pS6/actin protein ratios in fasted rat gastrocnemius muscle (FIG. 23C) or liver (FIG. 23D) 30 and 60 minutes after administering amino acids via intravenous bolus injection.
Rats (n=3), fasted for 24 hours, were administered LRK or LCK via oral gavage or bolus IV injection and gastrocnemius muscle and liver was isolated 30 and 60 minutes later. Gastrocnemius muscle and liver was analyzed by SDS-PAGE followed by western blotting for levels of phosphorylated S6—a marker of mTORC1 activity.

[6] = system: mice, hindlimb immobilization model of muscle atrophy; test: Hindlimb immobilization/recovery model of muscle atrophy, gastrocnemius mass; format: in vivo, mouse; settings: left hindlimb immobilized 5 days, 5 days recovery; IP twice daily; rapamycin daily where indicated
Experimental: Mice were subjected to immobilization of the left hind limb for 5 days followed by a 5-day recovery period. Each mouse was injected intraperitoneally twice daily at 9 am and 6 pm during the whole immobilization/recovery periods with the indicated amino acid esters or vehicle control. Rapamycin or vehicle control was injected daily where indicated. Following completion of the study both the right and left gastrocnemius were removed and mass of each muscle was recorded. Percent recovery was calculated by comparing the mass of the left immobilized gastrocnemius to that of the contralateral control leg. Standard error is shown, n=5-6 per treatment.
The protocol of hindlimb immobilization involves casting of the rear left leg, resulting in atrophy of the gastrocnemius and soleus muscles. The rear right leg remains free, and serves as an internal control for gastrocnemius and soleus muscle mass.
The inventors performed an experiment where left hindlimbs were immobilized for 5 days, casts were removed, and a recovery period of 5 days continued until the study endpoint. Animals were injected with PBS as control, L ethyl ester, or LR ethyl esters twice daily. As in the previous experiment, the 1× doses of amino acids and their esters were calculated as 20% of the amount that an adult mouse eats in a 24 h period under ad libitum conditions. […]

muscle protein synthesis = test: Muscle protein synthetic rate in starved rats (flooding dose of radiolabeled phenylalanine); format: in vivo, rat; settings: oral, 25% dose, 45 minutes, versus fasted vehicle control
Experimental: FIGS. 24A and 24B depict the effect of various amino acid combinations or a Leu-Arg-Lys tripeptide on phosphorylation of an mTORC1 substrate and the rate of muscle protein synthesis in starved rats.
To address this question, starved rats (n=8) were given oral doses of leucine, LR, LR(k), LC(k) and the LRK peptide and muscle protein synthetic rates were measured by administering a flooding dose of radiolabeled phenylalanine 10 minutes before sacrifice and quantifying uptake of radiolabeled phenylalanine.
Starved rats were dosed with amino acids benchmarked to either 5% of 25% of their daily intake of leucine. Rats were sacrificed 45 minutes after oral gavage and tissues and plasma was collected for mTORC1 signaling assessment, quantification of plasma leucine levels and measurement of protein synthetic rates.

mTORC1 [7] = test: Muscle mTORC1 activation in immobilized and fasted mice after IP injection (phosphorylated S6, 4EBP1); format: in vivo, mouse; settings: 18-hour fast, 30 minutes
Experimental: Mice were subjected to a model of hindlimb immobilization for 5 days in which the left hindlimb was casted as described in Example 2 in order to induce atrophy. Food and water were provided ad libitum. The night before day 6, food was withdrawn and the mice were subjected to an 18-hour overnight fast. […] Right (R; control) and left (L*; immobilized) gastrocnemius muscles were collected 30 minutes after treatment, snap frozen in liquid nitrogen, and processed for western blotting analysis with appropriate antibodies as previously described.

mTORC1 [8] = test: Assaying L, R, K analogs for mTORC1 modulation in whole cells (pS6K); format: cell-based, human
Experimental: Generally, to test analogs of L, R, and K, whole cells (e.g., HEK293) can be starved of all amino acids (using RPMI—aa) for a period of time (e.g., about 50 min), and then stimulated with a combination of L, R, or K and/or an analog of L, R, or K, and mTORC1 activity can be measured by phosphorylation of an mTORC1 substrate (e.g., S6K).
Below are exemplary conditions which can be used to assay analogs of leucine (e.g., photoleucine (photoLeu)) for their ability to activate or suppress mTORC1 activity.
4) RK+0.1× photoLeu 5) RK+0.5× photoLeu 6) RK+1× photoLeu 7) RK+10× photoLeu
9) LRK+0.1× photoLeu 10) LRK+0.5× photoLeu 11) LRK+1× photoLeu 12) LRK+10× photoLeu
Conditions 3-7 above test whether or not a leucine analog (e.g., photoLeu) can substitute for native Leu. […] Those skilled in the art will appreciate that conditions 3-7 above can be modified to assay other analogs, for example, by replacing RK with LK to assay R analogs or by replacing RK with LR to assay K analogs.
Conditions 8-12 above test whether or not a leucine analog (e.g., photoLeu) can compete against native Leu.
The concentration range of analogs used in the protocol set forth above was from about 0.1× to 10× (relative to RPMI), however, other concentrations may be used, as will be appreciated by the skilled artisan.

In the case of CC(C)C[C@H](NC(=O)OCc1ccccc1)C(=O)O, the “mTORC1 stimulatory activity of derivative compared with the corresponding native amino acid” value (mTORC1 [1]) is reported as “retains the ability to signal to mTORC1, albeit with lower potency than native Leu”.
In the case of NC(=O)c1ncn([C@@H]2O[C@H](CO)[C@@H](O)[C@H]2O)c1N [AICAR, aminoimidazole carboxamide ribonucleotide], the “mTORC1 activity in RagA^+/+ and RagA^GTP/GTP MEFs” value (mTORC1 [2]) is reported as “inhibited mTORC1 in cells of all genotypes”.
For C[C@H](N)C(=O)O [alanine], the “glycaemia of fasted neonates after injection” value (RagA^GTP/GTP neonates; all neonates regardless of genotype) was “provoked a significant increase in glycaemia”.
In the case of NC(=O)NCCC[C@H](N)C(=O)O [citrulline, L-Citrulline], the “conversion of citrulline to arginine” value [3] is listed as “little to no conversion of citrulline to arginine”, the “circulating citrulline converted to arginine by the kidneys” value ([4]; Bahri S. et al. 2013) is listed as “over 80%” and the “mTORC1 activation at the level of muscle, as substitute for arginine” value (mTORC1 [5]) is listed as “adequate substitute for arginine for mTORC1 activation at the level of muscle”. For the same compound, the “mTORC1 activation in liver, as substitute for arginine” value (mTORC1 [5]) was “less potent at activating mTORC1 in liver”.
With CCOC(=O)[C@@H](N)CC(C)C [leucine ethyl ester, L-leucine ethyl ester] the “relative gastrocnemius muscle mass compared to control (PBS injected mice)” value [6] was “the only treatment that led to a significant increase in gastrocnemius muscle mass was LR ethyl ester treatment” and the “mTORC1 stimulatory activity of derivative compared with the corresponding native amino acid” value (mTORC1 [1]) was “modestly more stimulatory than the corresponding native amino acid”.
In the case of COC(=O)[C@@H](N)CC(C)C [leucine methyl ester], the “mTORC1 stimulatory activity of derivative compared with the corresponding native amino acid” value (mTORC1 [1]) is reported as “modestly more stimulatory than the corresponding native amino acid”.
For CC(C)C[C@H](N)C(=O)O [leucine, L-leucine], the “muscle protein synthesis (MPS) rate in gastrocnemius” value (muscle protein synthesis) was “little difference between fasted rats and rats given leucine alone”, the “mTORC1 activity (phosphorylated S6 and 4EBP1) in non-immobilized (R) gastrocnemius” value (mTORC1 [7]) was “stimulated mTORC1 in the non-immobilized muscle in all mice” and the “mTORC1 activity (phosphorylated S6 and 4EBP1) in immobilized (L*) gastrocnemius compared to fasted controls” value (mTORC1 [7]; 5 days immobilization, LRK = 1× (L-Leucine, L-Arginine) plus 0.1× L-Lysine) was “unable to increase mTORC1 activity in the immobilized (L*) gastrocnemius muscle in four of the 5 mice”.
With CCOC(=O)[C@@H](N)CCCCN [lysine ethyl ester] the “mTORC1 stimulatory activity of derivative compared with the corresponding native amino acid” value (mTORC1 [1]) was “modestly more stimulatory than the corresponding native amino acid”.
For COC(=O)[C@@H](N)CCCCN [lysine methyl ester], the “mTORC1 stimulatory activity of derivative compared with the corresponding native amino acid” value (mTORC1 [1]) was “modestly more stimulatory than the corresponding native amino acid”.
For NCCCC[C@H](N)C(=O)O [lysine, L-lysine], the “bioavailability of orally ingested amino acid” value ([4]; Fry C S et al. 2011) is listed as “superior to leucine and arginine”.
With CC1(C[C@H](N)C(=O)O)N=N1 [photoLeu] the “suppression of pS6K signal caused by baseline LRK (antagonist test)” value (mTORC1 [8]; LRK + 0.1× to 10× analog (relative to RPMI)) was “not an antagonist or mTORC1-inactivating competitor against native Leu”, the “pS6K signal when analog substitutes for native Leu (agonist test)” value (mTORC1 [8]; RK + 0.1× to 10× analog (relative to RPMI)) was “pS6K signal increases” and the “mTORC1 stimulatory activity of derivative compared with the corresponding native amino acid” value (mTORC1 [1]) was “retains some mTORC1 stimulatory activity”.
For CO[C@H]1C[C@@H]2CC[C@@H](C)[C@@](O)(O2)C(=O)C(=O)N2CCCC[C@H]2C(=O)O[C@H]([C@H](C)C[C@@H]2CC[C@@H](O)[C@H](OC)C2)CC(=O)[C@H](C)/C=C(\C)[C@@H](O)[C@@H](OC)C(=O)[C@H](C)C[C@H](C)/C=C/C=C/C=C/1C [rapamycin], the “time to death of fasted RagA^GTP/GTP neonates” value (RagA^GTP/GTP neonates; treated at birth, untreated ˜14 h, p<0.01) was ~21 h.
